IC50 data for 28 compounds are collected here from US9242984B2, “Pyrazolyl derivatives as Syk inhibitors” (Merck Sharp & Dohme Corp., priority 2012, dated 2016).

Read-outs that look alike come from different tables or passages of the source.

In this assay the target is T1, recombinant human Syk (GST-hSyk fusion protein) (Homo sapiens, UniProt P43405).
T1 construct: purchased Carna Biosciences 08-176
As to the kind of experiment: Homogeneous Time-Resolved Fluorescence (HTRF) assay for the recombinant human Syk enzyme. The format is biochemical. The following applies: 10-dose titration, 25 μM ATP. The procedure, abridged: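 IC50 came from a four-parameter fit over ten doses, 10 μM to 0.508 nM, with HTRF read-out (Eu-anti-pTyr antibody, SA-APC, EDTA stop, 30 min). The enzyme, 5 pM GST-hSyk, met compound for 10 min, then phosphorylated 250 nM biotin-peptide with 25 μM ATP and 5 mM Mg for 45 min at room temperature, pH 7.5.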

Where [1] appears, read: IC50 class, read-out: rhSYK Activity.

Take `Cc1cc(Nc2nccc(C(F)F)n2)cc(-c2cnn(CC3OC(=O)NC3C3CC3)c2)c1` (single isomer, unassigned) [Example 23.18, 4-cyclopropyl-5-{[4-(3-{[4-(difluoromethyl)pyrimidin-2-yl]amino}-5-methylphenyl)-1H-pyrazol-1-yl]methyl}-1,3-oxazolidin-2-one]: the IC50 under setting [1] was ≤ 0.1 µM. Consider `Cc1cc(Nc2nccc(C(F)F)n2)cc(-c2cnn(CC3OC(=O)NC3C3CC3)c2)c1` (single isomer, unassigned) [Example 23.19, 4-cyclopropyl-5-{[4-(3-{[4-(difluoromethyl)pyrimidin-2-yl]amino}-5-methylphenyl)-1H-pyrazol-1-yl]methyl}-1,3-oxazolidin-2-one], for which the IC50 under setting [1] is ≤ 0.1 µM. For `Cc1cc(Nc2ncc(F)c(C(F)F)n2)cc(-c2cnn(CC3OC(=O)NC3C)c2)c1` (single isomer, unassigned) [Example 23.20, 5-{[4-(3-{[4-(difluoromethyl)-5-fluoropyrimidin-2-yl]amino}-5-methylphenyl)-1H-pyrazol-1-yl]methyl}-4-methyl-1,3-oxazolidin-2-one], under setting [1], the IC50 was ≤ 0.1 µM. Same read-out and setting: in the case of `Cc1cc(Nc2ncc(F)c(C(F)F)n2)cc(-c2cnn(CC3OC(=O)NC3C)c2)c1` (single isomer, unassigned) [Example 23.21, 5-{[4-(3-{[4-(difluoromethyl)-5-fluoropyrimidin-2-yl]amino}-5-methylphenyl)-1H-pyrazol-1-yl]methyl}-4-methyl-1,3-oxazolidin-2-one] it was ≤ 0.1 µM. Turning to `Cc1cc(Nc2nccc(C(F)F)n2)cc(-c2cnn(CC(C)(O)C(F)(F)F)c2)c1` (single isomer, unassigned) [Example 24.1, (S or R)-3-(4-(3-((4-(difluoromethyl)pyrimidin-2-yl)amino)-5-methylphenyl)-1H-pyrazol-1-yl)-1,1,1-trifluoro-2-methylpropan-2-ol], the IC50 (read-out: rhSYK IC50) turned out to be 0.0026 µM and the IC50 under setting [1] was ≤ 0.1 µM. The like results for `Cc1cc(Nc2nccc(C(F)F)n2)cc(-c2cnn(CC(C)(O)C(F)(F)F)c2)c1` (single isomer, unassigned) [Example 24.2, (S or R)-3-(4-(3-((4-(difluoromethyl)pyrimidin-2-yl)amino)-5-methylphenyl)-1H-pyrazol-1-yl)-1,1,1-trifluoro-2-methylpropan-2-ol] were, in that order, 0.0062 µM and ≤ 0.1 µM.

Regarding `Cc1cc(Nc2nccc(C(F)F)n2)cc(-c2cnn(CC(O)(CO)C(F)(F)F)c2)c1` (single isomer, unassigned) [Example 25.1, 2-((4-(3-((4-(Difluoromethyl)pyrimidin-2-yl)amino)-5-methylphenyl)-1H-pyrazol-1-yl)methyl)-3,3,3-trifluoropropane-1,2-diol], the IC50 is 0.0032 µM (read-out: rhSYK IC50) and ≤ 0.1 µM under setting [1].

Turning to `Cc1cc(Nc2nccc(C)n2)cc(-c2cnn(CC(C)(O)CO)c2)c1` (single isomer, unassigned) [Example 25.2, 2-methyl-3-(4-{3-methyl-5-[(4-methylpyrimidin-2-yl)amino]phenyl}-1H-pyrazol-1-yl)propane-1,2-diol], the IC50 under setting [1] was ≤ 0.1 µM. The same measure, in the same setting: as for `Cc1cc(Nc2nccc(C(F)F)n2)cc(-c2cnn(CC(C)(O)CO)c2)c1` (single isomer, unassigned) [Example 25.3, 3-[4-(3-{[4-(difluoromethyl)pyrimidin-2-yl]amino}-5-methylphenyl)-1H-pyrazol-1-yl]-2-methylpropane-1,2-diol], the figure is ≤ 0.1 µM. The same measure, in the same setting: as for `Cc1cc(Nc2nccc(C)n2)cc(-c2cnn(CC(C)(O)CO)c2)c1` (single isomer, unassigned) [Example 25.4, 2-methyl-3-(4-{3-methyl-5-[(4-methylpyrimidin-2-yl)amino]phenyl}-1H-pyrazol-1-yl)propane-1,2-diol], the figure is ≤ 0.1 µM. The same measure, in the same setting: as for `Cc1cc(Nc2nccc(C(F)F)n2)cc(-c2cnn(CC(C)(O)CO)c2)c1` (single isomer, unassigned) [Example 25.5, 3-[4-(3-{[4-(difluoromethyl)pyrimidin-2-yl]amino}-5-methylphenyl)-1H-pyrazol-1-yl]-2-methylpropane-1,2-diol], the figure is ≤ 0.1 µM. Turning to `Cc1cc(Nc2nccc([C@@H](C)F)n2)cc(-c2cnn(CC(C)(O)CO)c2)c1` (single isomer, unassigned) [Example 25.6], under setting [1], the IC50 was ≤ 0.1 µM. As for `Cc1cc(Nc2nccc([C@H](C)F)n2)cc(-c2cnn(CC(C)(O)CO)c2)c1` (single isomer, unassigned) [Example 25.7], the IC50 under setting [1] was ≤ 0.1 µM. Take `Cc1cc(Nc2nccc([C@@H](C)F)n2)cc(-c2cnn(CC(C)(O)CO)c2)c1` (single isomer, unassigned) [Example 25.8]: the IC50 under setting [1] was ≤ 0.1 µM.

On to `Cc1cc(Nc2ncc(F)c(C(F)F)n2)cc(-c2cnn(CC(C)(O)CO)c2)c1` (single isomer, unassigned) [Example 25.9, 3-[4-(3-{[4-(difluoromethyl)-5-fluoropyrimidin-2-yl]amino}-5-methylphenyl)-1H-pyrazol-1-yl]-2-methylpropane-1,2-diol], for which the IC50 under setting [1] was ≤ 0.1 µM. The same measure, in the same setting: in the case of `Cc1cc(Nc2ncc(F)c(C(F)F)n2)cc(-c2cnn(CC(C)(O)CO)c2)c1` (single isomer, unassigned) [Example 25.10, 3-[4-(3-{[4-(difluoromethyl)-5-fluoropyrimidin-2-yl]amino}-5-methylphenyl)-1H-pyrazol-1-yl]-2-methylpropane-1,2-diol] it was ≤ 0.1 µM. For the compound `Cc1cc(Nc2ncccn2)cc(-c2cnn(C(C)c3ccc(C(N)=O)cc3)c2)c1` (single isomer, unassigned) [Example 28.1, 4-(1-(4-(3-Methyl-5-(pyrimidin-2-ylamino)phenyl)-1H-pyrazol-1-yl)ethyl)benzamide], the IC50 is 0.0575 µM (read-out: rhSYK IC50) and ≤ 0.1 µM under setting [1].

In the case of `Cc1cc(Nc2ncccn2)cc(-c2cnn(C(C)c3ccc(C(N)=O)cc3)c2)c1` (single isomer, unassigned) [Example 28.2, 4-(1-(4-(3-methyl-5-(pyrimidin-2-ylamino)phenyl)-1H-pyrazol-1-yl)ethyl)benzamide], the IC50 is 0.0072 µM (read-out: rhSYK IC50) and ≤ 0.1 µM under setting [1]. With `Cc1cc(Nc2ncccn2)cc(-c2cnn(C3CC(C(N)=O)C3)c2)c1` (single isomer, unassigned) [Example 30.1, 3-(4-(3-Methyl-5-(pyrimidin-2-ylamino)phenyl)-1H-pyrazol-1-yl)cyclobutanecarboxamide], the IC50 reads like this: (read-out: rhSYK IC50) 0.0483 µM; under setting [1], ≤ 0.1 µM. In the case of `Cc1cc(Nc2ncccn2)cc(-c2cnn(C3CC(C(N)=O)C3)c2)c1` (single isomer, unassigned) [Example 31.1, 3-(4-(3-Methyl-5-(pyrimidin-2-ylamino)phenyl)-1H-pyrazol-1-yl)cyclobutanecarboxamide], the IC50 (read-out: rhSYK IC50) turned out to be 0.0349 µM and the IC50 under setting [1] is ≤ 0.1 µM. Take `Cc1cc(Nc2nccc(C(F)F)n2)cc(-c2cnn(CC(O)(CO)C(F)(F)F)c2)c1` (single isomer, unassigned) [Example 32.1, (S or R)-2-((4-(3-((4-(difluoromethyl)pyrimidin-2-yl)amino)-5-methylphenyl)-1H-pyrazol-1-yl)methyl)-3,3,3-trifluoropropane-1,2-diol]: the IC50 runs as follows: (read-out: rhSYK IC50) 0.0016 µM; under setting [1], ≤ 0.1 µM.

As for `Cc1cc(Nc2nccc(C(F)F)n2)cc(-c2cnn(CC(O)(CO)C(F)(F)F)c2)c1` (single isomer, unassigned) [Example 32.2, (S or R)-2-((4-(3-((4-(difluoromethyl)pyrimidin-2-yl)amino)-5-methylphenyl)-1H-pyrazol-1-yl)methyl)-3,3,3-trifluoropropane-1,2-diol], the IC50 by setting is: (read-out: rhSYK IC50) 0.0033 µM; under setting [1], ≤ 0.1 µM. As to `Cc1cc(Nc2nccc(C(F)F)n2)cc(-c2cnn(CC3OC(=O)NC3CO)c2)c1` (single isomer, unassigned) [Example 33.1, 5-{[4-(3-{[4-(difluoromethyl)pyrimidin-2-yl]amino}-5-methylphenyl)-1H-pyrazol-1-yl]methyl}-4-(hydroxymethyl)-1,3-oxazolidin-2-one], the IC50 (read-out: rhSYK IC50) was found to be 0.0016 µM and the IC50 under setting [1] was ≤ 0.1 µM.

In the case of `Cc1cc(Nc2nccc(C(F)F)n2)cc(-c2cnn(CC3OC(=O)NC3CO)c2)c1` (single isomer, unassigned) [Example 33.2, 5-{[4-(3-{[4-(difluoromethyl)pyrimidin-2-yl]amino}-5-methylphenyl)-1H-pyrazol-1-yl]methyl}-4-(hydroxymethyl)-1,3-oxazolidin-2-one], under setting [1], the IC50 is ≤ 0.1 µM. Still for that read-out and setting: as for `Cc1cc(Nc2nccc(C(F)F)n2)cc(-c2cnn(CC3OC(=O)NC3CO)c2)c1` (single isomer, unassigned) [Example 33.3, 5-{[4-(3-{[4-(difluoromethyl)pyrimidin-2-yl]amino}-5-methylphenyl)-1H-pyrazol-1-yl]methyl}-4-(hydroxymethyl)-1,3-oxazolidin-2-one], the figure is ≤ 0.1 µM; as for `Cc1cc(Nc2nccc(C(F)F)n2)cc(-c2cnn(CC3OC(=O)NC3CO)c2)c1` (single isomer, unassigned) [Example 33.4, 5-{[4-(3-{[4-(difluoromethyl)pyrimidin-2-yl]amino}-5-methylphenyl)-1H-pyrazol-1-yl]methyl}-4-(hydroxymethyl)-1,3-oxazolidin-2-one], ≤ 0.1 µM. Still for that read-out and setting: as for `Cc1cc(Nc2nccc(C(F)F)n2)cc(-c2cnn(C(C[C@H](C)O)[C@@H](C)O)c2)c1` (stereo in doubt) [Example 2.49, 3-[4-(3-{[4-(difluoromethyl)pyrimidin-2-yl]amino}-5-methylphenyl)-1H-pyrazol-1-yl]hexane-2,5-diol], the figure is ≤ 0.1 µM. With `Cc1cc(Nc2nccc(C(F)F)n2)cc(-c2cnn(C(C[C@@H](C)O)[C@H](C)O)c2)c1` (stereo in doubt) [Example 2.50, 3-[4-(3-{[4-(difluoromethyl)pyrimidin-2-yl]amino}-5-methylphenyl)-1H-pyrazol-1-yl]hexane-2,5-diol], under setting [1], the IC50 is ≤ 0.1 µM.
